Data reported in patent US10800741B2 (ANCUREALL PHARMACEUTICAL (SHANGHAI) CO., LTD., priority 2017, dated 2020).

Key:
Assay type in all cases: cell-based
[1] = system: HCC1954; experiment: In vitro growth inhibition of PI3KCA amplified/mutant tumor cells HCC1954; conditions: Homo sapiens, HCC1954, read-out: IC50 growth inhibition
Procedure: (§1) Suspension culture cells were collected by centrifugation (1700 rpm, 3 minutes). The supernatant was discarded and the cells were counted. According to each cell growth cycle, different concentrations of cells were prepared (5˜10×10^4 cells per ml), and inoculated to 96-well plates (Corning), with 100 μl per well, and incubated overnight at 37° C., 5% CO2. The next day, the test compound was added to the cultured cells (2 wells in parallel). The final concentration of the solvent was less than 1/1,000. The cells were further cultured for 3 to 5 days and assayed by MTT.
(§2) The adherent cells were taken out from the cell culture medium, and immediately added to a freshly prepared complete medium containing 10% CCK8 (5% FBS), 100 ul per hole. The suspended cells were directly added to a CCK8 reagent until reaching a final concentration of 10% and cultured for 1 to 4 hours.
(§3) T=optical density of drug-treated cell wells−optical density of blank control wells; T0=optical density of cell wells before drug treatment−optical density of blank control wells; C=optical density of solvent control wells−optical density of blank control wells. […] The experiments were repeated 1 to 3 times and a statistical analysis of data was conducted.

[2] = system: A2780; experiment: In vitro growth inhibition of PI3KCA amplified/mutant tumor cells A2780; conditions: Homo sapiens, A2780, read-out: IC50 growth inhibition
Procedure: as §1, §2, §3

[3] = system: KYSE70; experiment: In vitro growth inhibition of PI3KCA amplified/mutant tumor cells KYSE70; conditions: Homo sapiens, KYSE-70, read-out: IC50 growth inhibition
Procedure: as §1, §2, §3

[4] = system: SW48; experiment: In vitro growth inhibition of PI3KCA amplified/mutant tumor cells SW48; conditions: Homo sapiens, SW48, read-out: IC50 growth inhibition
Procedure: as §1, §2, §3

[5] = system: HCT116; experiment: In vitro growth inhibition of PI3KCA amplified/mutant tumor cells HCT116; conditions: Homo sapiens, HCT-116, read-out: IC50 growth inhibition
Procedure: as §1, §2, §3

[6] = system: SK-OV-3; experiment: In vitro growth inhibition of PI3KCA amplified/mutant tumor cells SK-OV-3; conditions: Homo sapiens, SK-OV-3, read-out: IC50 growth inhibition
Procedure: as §1, §2, §3

[7] = system: HGC-27; experiment: In vitro growth inhibition of PI3KCA amplified/mutant tumor cells HGC-27; conditions: Homo sapiens, HGC-27, read-out: IC50 growth inhibition
Procedure: as §1, §2, §3

[8] = system: NCI-H460; experiment: In vitro growth inhibition of PI3KCA amplified/mutant tumor cells NCI-H460; conditions: Homo sapiens, NCI-H460, read-out: IC50 growth inhibition
Procedure: as §1, §2, §3

[9] = system: AGS; experiment: In vitro growth inhibition of PI3KCA amplified/mutant tumor cells AGS; conditions: Homo sapiens, read-out: IC50 growth inhibition
Procedure: as §1, §2, §3

IC50 [1]: 6.8 nM
IC50 [2]: 9.67 nM
IC50 [3]: 19.7 nM
IC50 [4]: 27.5 nM
IC50 [5]: 65.1 nM
IC50 [6]: 10.2 nM
IC50 [7]: 17.3 nM
IC50 [8]: 30.4 nM
IC50 [9]: 39.5 nM
Structure (SMILES): COc1c(OCCCN2CCOCC2)ccc2c1N=C(NC(=O)c1cnc(N)nc1)N1CCN=C21 [BAY 80-6946, reference compound]
